These are literature values, as cited in patent publication US20240398940A1, “NOVEL LIPID NANOPARTICLES FOR DELIVERY OF NUCLEIC ACIDS” (CureVac SE, priority 2021, published 2024).

For series [1] the following is noted: in vivo.

Like-named read-outs stand apart in the source and are kept apart here.

Regarding `Cc1c(C)c2c(c(C)c1OC(=O)CCC(=O)OCCC1CCN(CCSSCCN3CCC(CCOC(=O)CCC(=O)Oc4c(C)c(C)c5c(c4C)CCC(C)(CCCC(C)CCCC(C)CCCC(C)C)O5)CC3)CC1)CCC(C)(CCCC(C)CCCC(C)CCCC(C)C)O2` (stereo not shown) [C23, COATSOME ® SS-EC], the charge result runs as follows: (pH 4) “positive charge”; (pH 7) “neutral charge”.
Consider poly(2-methyl-2-oxazoline) [PMOZ], for which, in series [1], the accumulation in tissue result is on record as “no significant accumulation in tissue” and the excretion entry was “rapidly excreted by the kidney”.
